Test results published in ChEMBL document CHEMBL5344477, “Discovery of benzoheterocyclic-substituted amide derivatives as apoptosis signal-regulating kinase 1 (ASK1) inhibitors” (RSC Med Chem, 2024).

Tests used:
[1] = Half life in Sprague-Dawley rat at 0.5 mg/kg, iv measured upto 24 hrs by LC-MS/MS analysis; format: ADME, organism-based; details: in vivo
[2] = Half life in Sprague-Dawley rat at 2.5 mg/kg, po measured upto 24 hrs by LC-MS/MS analysis; format: ADME, organism-based; details: in vivo
[3] = Metabolic stability in rat liver microsomes assessed as clearance at 1 uM measured upto 90 mins by LC-MS/MS analysis; format: ADME, Microsome; details: read-out: CLH
[4] = Apparent […] clearance in Sprague-Dawley rat at 0.5 mg/kg, iv measured upto 24 hrs by LC-MS/MS analysis; format: ADME, organism-based; details: in vivo
[5] = Cmax in Sprague-Dawley rat at 2.5 mg/kg, po measured upto 24 hrs by LC-MS/MS analysis; format: ADME, organism-based; parameters: dose 2.5 mg/kg, time < 24 hrs, route po; details: in vivo
[6] = Volume of distribution at steady state in Sprague-Dawley rat at 0.5 mg/kg, iv measured upto 24 hrs by LC-MS/MS analysis; format: ADME, organism-based; details: in vivo, read-out: Vdss
[7] = AUClast in Sprague-Dawley rat at 2.5 mg/kg, po measured upto 24 hrs by LC-MS/MS analysis; format: ADME, organism-based; parameters: dose 2.5 mg/kg, time < 24 hrs, route po; details: in vivo
[8] = Cmax in Sprague-Dawley rat at 0.5 mg/kg, iv measured upto 24 hrs by LC-MS/MS analysis; format: ADME, organism-based; parameters: time < 24 hrs, dose 0.5 mg/kg, route iv; details: in vivo
[9] = Metabolic stability in human liver microsomes assessed as clearance at 1 uM measured upto 90 mins by LC-MS/MS analysis; format: ADME, Microsome; details: read-out: CLH
[10] = Oral bioavailability in Sprague-Dawley rat at 2.5 mg/kg measured upto 24 hrs by LC-MS/MS analysis; format: ADME, organism-based; details: in vivo
[11] = Metabolic stability in rat liver microsomes assessed as half life at 1 uM measured upto 90 mins by LC-MS/MS analysis; format: ADME, Microsome
[12] = AUClast in Sprague-Dawley rat at 0.5 mg/kg, iv measured upto 24 hrs by LC-MS/MS analysis; format: ADME, organism-based; parameters: time < 24 hrs, dose 0.5 mg/kg, route iv; details: in vivo
[13] = Metabolic stability in human liver microsomes assessed as half life at 1 uM measured upto 90 mins by LC-MS/MS analysis; format: ADME, Microsome

half-life [1] | half-life [2] | CLint scaled at 1 µM [3] | CL/F [4] | Cmax [5] | Vd [6] | AUC(0-t) at 24 h [7] | Cmax [8] | CLint scaled at 1 µM [9] | bioavailability [10] | half-life at 1 µM [11] | AUC(0-t) at 24 h [12] | half-life at 1 µM [13] | Structure (SMILES)
0.97 h | 2.07 h | 10.2 mL/min/kg | 14 mL/min/kg | 832 ng/mL | 1.07 L/kg | 2390 ng·h/mL | 489 ng/mL | 4 mL/min/kg | 83.6% | 4.08 h | 592 ng·h/mL | 7.24 h | O=C1COc2cc(F)c(C(=O)Nc3cccc(-c4nncn4C4CC4)n3)cc2N1
0.71 h | 1.3 h | 27.3 mL/min/kg | 38 mL/min/kg | 417 ng/mL | 1.88 L/kg | 767 ng·h/mL | 239 ng/mL | 5.5 mL/min/kg | 72.2% | 1.52 h | 218 ng·h/mL | 5.26 h | CC(C)n1cnnc1-c1cccc(NC(=O)c2cc3c(cc2F)OC(C)(C)C(=O)N3C)n1
